# Reference: patent US9657263B2 (priority 2010, dated 2017)
# Key:
# [1] = tested on: influenza B virus; design: species or system BALB/c mice; details: mouse, in vivo
# [2] = tested on: influenza A virus; design: species or system BALB/c mice; details: mouse, in vivo
smiles,measurement,setting,value
"CCOC(=O)C1=C[C@@H](OC(CC)CC)[C@H](NC(C)=O)[C@@H](N)C1 [Tamiflu, oseltamivir phosphate]",clinical symptoms,[1],"significant weight loss, cough, deem and messy hairs, decreased activity"
same,survival rate,[1],100%
same,death rate (FIG. 4a),[2],33%
